This is an account of results in US20090062189A1, “TUMOR SUPPRESSOR PROTEIN AND NUCLEOTIDE ENCODING SAME” (priority 2006, published 2009).

One assay has as its system 22Rv1 cells. The assay is described as follows: Immunoblotting of PDZD2 in cell lysates and sPDZD2 in conditioned media with anti-PDZD2 antibody. Conditions: 10 μM Z-DEVD-FMK, 48 hours, compared to Z-FA-FMK-treated cells. It is filed as cell-based, human. From the text: (§1) Given that cleavage of pro-IL-16 to form the corresponding secretory IL-16 cytokine is mediated by caspase-3, we tested whether or not proteolytic cleavage of full-length PDZD2 to its secreted protein sPDZD2 is caspase-3-dependent in human prostate, breast and liver cancer cells. Human prostate cancer cell lines LNCaP.FGC (CRL-1740), DUI45 (HTB-81), PC-3 (CRL-1435), and 22Rv1 (CRL-2505), breast adenocarcinoma cell line MCF-7 (HTB-22), and hepatocellular carcinoma cell line Hep-G2 (HB-8065) were obtained from American Type Culture Collection. […] Cell lysates in sample buffer (0.2% SDS, 10% glycerol, 0.06 M Tris-HCl (pH 6.8), 100 mM DTT, and 0.01% bromophenol blue) were heated at 95° C. for 5 min. Proteins in the conditioned media were concentrated by 50-fold using YM-10 Centricons (Millipore). Samples (10 μg) were resolved by SDS-PAGE and electroblotted to PVDF membranes (Millipore). The blots were blocked with 5% non-fat milk powder in TBS-T for 1 hour at room temperature and then incubated with rabbit anti-PDZD2 antibody (1: 10,000 dilution) overnight at 4° C. After washing with TBS-T, the blots were incubated with secondary antibodies against rabbit immunoglobulin G (ZYMED Laboratories). Blots were stripped in 25 mM glycine buffer (pH 2.0) for 30 min for re-probing with α-tubulin (1:500 dilution, Santa Cruz Biotechnology). The signals were visualized by enhanced chemiluminescence Western blotting system (Amersham Biosciences) and densitometric scannings of films of the developed blot normalized against α-tubulin were determined.
In general terms: In western blotting, separated proteins are transferred to a membrane and probed.

A further assay deals with DU145 cells. Described as above. It is filed as cell-based, human. Conditions: 10 μM Z-DEVD-FMK, 48 hours, compared to Z-FA-FMK-treated cells.
Excerpt: as §1

For the next assay, the system named is Hep-G2 cells. Described as above. The conditions noted are these: 10 μM Z-DEVD-FMK, 48 hours, compared to Z-FA-FMK-treated cells. Format: cell-based, human.
Excerpt: as §1

Another assay relates to MCF-7 cells. Described as above. Format: cell-based, human. Conditions: 10 μM Z-DEVD-FMK, 48 hours, compared to Z-FA-FMK-treated cells.
Excerpt: as §1

For a further assay, the system named is PC-3 cells. The description is as above. It is filed as cell-based, human. Conditions: 10 μM Z-DEVD-FMK, 48 hours, compared to Z-FA-FMK-treated cells.
Excerpt: as §1

Assay [1] deals with T1, PDZ domain-containing protein 2 (PDZD2), full-length, human (human) (UniProt O15018).
T1 sequence: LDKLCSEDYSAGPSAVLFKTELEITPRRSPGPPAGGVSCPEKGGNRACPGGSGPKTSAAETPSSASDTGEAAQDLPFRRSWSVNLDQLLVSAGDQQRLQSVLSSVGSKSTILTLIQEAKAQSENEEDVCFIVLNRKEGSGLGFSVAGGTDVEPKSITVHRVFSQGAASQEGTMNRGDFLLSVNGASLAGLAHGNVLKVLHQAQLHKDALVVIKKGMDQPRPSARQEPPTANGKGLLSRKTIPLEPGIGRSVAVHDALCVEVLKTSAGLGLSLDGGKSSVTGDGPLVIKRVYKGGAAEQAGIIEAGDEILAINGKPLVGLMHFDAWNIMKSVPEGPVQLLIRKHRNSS
The assay is described as follows: cell-based or functional assay.

As for Z-DEVD-FMK, the “increase of PDZD2 expression” value with 22Rv1 cells was determined as 4.4 fold; in the assay with DU145 cells it was 3 fold; in the assay with Hep-G2 cells it was 4.1 fold; with MCF-7 cells it was 3.5 fold; in the assay on PC-3 cells, 2 fold. Moreover, the “reduction of sPDZD2 secretion into conditioned media” value came out at 44% in the assay on 22Rv1 cells (serum-free); 40% with DU145 cells (serum-free); 52% in the assay with Hep-G2 cells (serum-free); 57% with MCF-7 cells (serum-free); 28% with PC-3 cells (serum-free).

B1: caspase-3 (enzyme, human, UniProt P42574 29-277, looked up)
chain: SGISLDNSYKMDYPEMGLCIIINNKNFHKSTGMTSRSGTDVDAANLRETFRNLKYEVRNKNDLTREEIVELMRDVSKEDHSKRSSFVCVLLSHGEEGIIFGTNGPVDLKKITNFFRGDRCRSLTGKPKLFIIQACRGTELDCGIETDSGVDDDMACHKIPVEADFLYAYSTAPGYYSWRNSKDGSWFIQSLCAMLKQYADKLEFMHILTRVNRKVATEFESFSFDATFHAKKQIPCIVSMLTKELYFYH
In assay [1], B1 registered an increase of full-length PDZD2 in cell lysate, 22Rv1 cells, 10 µM Z-DEVD-FMK 48 h vs Z-FA-FMK of 4.4 fold; an increase of full-length PDZD2 in cell lysate, DU145 cells, 10 µM Z-DEVD-FMK 48 h vs Z-FA-FMK of 3 fold; an increase of full-length PDZD2 in cell lysate, Hep-G2 cells, 10 µM Z-DEVD-FMK 48 h vs Z-FA-FMK of 4.1 fold; an increase of full-length PDZD2 in cell lysate, MCF-7 cells, 10 µM Z-DEVD-FMK 48 h vs Z-FA-FMK of 3.5 fold. Further, in assay [1], the increase of full-length PDZD2 in cell lysate, PC-3 cells, 10 µM Z-DEVD-FMK 48 h vs Z-FA-FMK turned out to be 2 fold; the reduction of sPDZD2 secretion into conditioned medium, 22Rv1 cells, 10 µM Z-DEVD-FMK 48 h vs Z-FA-FMK amounted to 44%; the reduction of sPDZD2 secretion into conditioned medium, DU145 cells, 10 µM Z-DEVD-FMK 48 h vs Z-FA-FMK stood at 40%; the reduction of sPDZD2 secretion into conditioned medium, Hep-G2 cells, 10 µM Z-DEVD-FMK 48 h vs Z-FA-FMK came out at 52%. Also, in assay [1], the reduction of sPDZD2 secretion into conditioned medium, MCF-7 cells, 10 µM Z-DEVD-FMK 48 h vs Z-FA-FMK stood at 57% and the reduction of sPDZD2 secretion into conditioned medium, PC-3 cells, 10 µM Z-DEVD-FMK 48 h vs Z-FA-FMK worked out at 28%.
